Literature values, collected in patent publication US20140023726A1, “POLYMORPHISMS PREDICTIVE OF PLATINUM-COORDINATING COMPLEX INDUCED OTOTOXICITY” (The University of British Columbia, priority 2006, published 2014).
Like-named read-outs stand apart in the source and are kept apart here.

N.N.[Cl][Pt][Cl] [cisplatin, trans-diaminedichloro-platinum(II)]
Permanent hearing loss, frequency in patients (children less than 5, standard doses of cisplatin): 48% | Permanent hearing loss, frequency in patients (patients receiving standard doses of cisplatin): 25%
